Laboratory results as given in the supplement of paper PMC6004109.

Assays:
Conditions in all cases: temperature: 37 °C
[1] = tested on: Candida glabrata ZIM 2389 (RPMI); assay: Bliss independence sum of statistically significant ΔE (measured minus predicted growth inhibition) over checkerboard surface (fraction (sum of ΔE; 1 = 100%)); higher = more synergy
[2] = tested on: Candida glabrata ZIM 2344 (RPMI); assay: as above
[3] = tested on: Saccharomyces cerevisiae ZIM 2558 (RPMI); assay: as above
[4] = tested on: Candida glabrata ZIM 2385 (RPMI); assay: as above
[5] = tested on: Saccharomyces cerevisiae ZIM 2269 (RPMI); assay: as above
[6] = tested on: Saccharomyces cerevisiae ZIM 2260 (RPMI); assay: as above
[7] = tested on: Saccharomyces cerevisiae ZIM 2566 (RPMI); assay: as above
[8] = tested on: Candida glabrata ZIM 2365 (RPMI); assay: as above
[9] = tested on: Candida glabrata ATCC 2001 pdr1 deletion mutant (YPD); assay: as above
[10] = tested on: Candida glabrata ATCC 2001 (YPD); assay: as above
[11] = tested on: Candida glabrata ATCC 2001 pdr1 deletion mutant (YPD); assay: FICI maximum (fractional inhibitory concentration index, Loewe) (dimensionless); higher = less synergy / more antagonism
Method in brief: (§1)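 CLSI M27-A3 checkerboard broth microdilution of two-drug combinations against yeast strains, in RPMI for clinical isolates or YPD for C. glabrata ATCC 2001 and its deletion mutant. An inoculum of 3–5 × 10^3 cells/ml (100 µl) was added to 100 µl drug dilutions, incubated at 37 °C and read as background-subtracted OD600 at 48 h, in at least biological triplicates. The value is the minimum or maximum Loewe fractional inhibitory concentration index over the combination surface, summing MIC-combination/MIC-alone ratios (MIC50 or MIC90 by drug).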

[12] = tested on: Candida glabrata ATCC 2001 (YPD); assay: as above
Method in brief: as §1

[13] = tested on: Candida glabrata ATCC 2001 pdr1 deletion mutant (YPD); assay: FICI minimum (fractional inhibitory concentration index, Loewe) (dimensionless); higher = less synergy / more antagonism
Method in brief: as §1

[14] = tested on: Candida glabrata ATCC 2001 (YPD); assay: as above
Method in brief: as §1

CN(Cc1cnc2nc(N)nc(N)c2n1)c1ccc(C(=O)N[C@@H](CCC(=O)O)C(=O)O)cc1 [methotrexate] + OC(Cn1cncn1)(Cn1cncn1)c1ccc(F)cc1F [fluconazole]
Bliss independence sum [1]: 0.272 | Bliss independence sum [2]: 1.94 | Bliss independence sum [3]: 8.35 | Bliss independence sum [4]: -0.819 | Bliss independence sum [5]: -1.86 | Bliss independence sum [6]: -0.0461 | Bliss independence sum [7]: -4.52 | Bliss independence sum [8]: 0.394

CC1(C)S[C@@H]2[C@H](NC(=O)[C@H](N)c3ccc(O)cc3)C(=O)N2[C@H]1C(=O)O [amoxicillin] + C[C@@H]1[C@H](O)[C@@H](C)/C=C/C=C/C=C/C=C/C=C/C=C/C=C/[C@H](O[C@@H]2O[C@H](C)[C@@H](O)[C@H](N)[C@@H]2O)C[C@@H]2O[C@](O)(C[C@@H](O)C[C@@H](O)[C@H](O)CC[C@@H](O)C[C@@H](O)CC(=O)O[C@H]1C)C[C@H](O)[C@H]2C(=O)O [amphotericin B]
Bliss independence sum [1]: 2.34 | Bliss independence sum [2]: 1.9 | Bliss independence sum [3]: -2.25 | Bliss independence sum [4]: 2.19 | Bliss independence sum [5]: 2.97 | Bliss independence sum [6]: 0.295 | Bliss independence sum [7]: -0.244 | Bliss independence sum [8]: 2.12

COc1c(C)c2c(c(O)c1C/C=C(\C)CCC(=O)O)C(=O)OC2 [mycophenolic acid] + OC(Cn1cncn1)(Cn1cncn1)c1ccc(F)cc1F [fluconazole]
Bliss independence sum [1]: 1.41 | Bliss independence sum [2]: 6.94 | Bliss independence sum [3]: -8.75 | Bliss independence sum [4]: -0.722 | Bliss independence sum [5]: -3.9 | Bliss independence sum [6]: -1.55 | Bliss independence sum [7]: -0.316 | Bliss independence sum [8]: -4.84 | Bliss independence sum [9]: -3.21 | Bliss independence sum [10]: -2.6 | FICI maximum [11]: 2.12 | FICI maximum [12]: 2.5 | FICI minimum [13]: 1.03 | FICI minimum [14]: 1.06

CN(Cc1cnc2nc(N)nc(N)c2n1)c1ccc(C(=O)N[C@@H](CCC(=O)O)C(=O)O)cc1 [methotrexate] + C[C@@H]1[C@H](O)[C@@H](C)/C=C/C=C/C=C/C=C/C=C/C=C/C=C/[C@H](O[C@@H]2O[C@H](C)[C@@H](O)[C@H](N)[C@@H]2O)C[C@@H]2O[C@](O)(C[C@@H](O)C[C@@H](O)[C@H](O)CC[C@@H](O)C[C@@H](O)CC(=O)O[C@H]1C)C[C@H](O)[C@H]2C(=O)O [amphotericin B]
Bliss independence sum [1]: -2.52 | Bliss independence sum [2]: 1.26 | Bliss independence sum [3]: -1.12 | Bliss independence sum [4]: -1.71 | Bliss independence sum [5]: 0.225 | Bliss independence sum [6]: 2 | Bliss independence sum [7]: -3.15 | Bliss independence sum [8]: -0.0967

C=CC[C@@H]1/C=C(\C)C[C@H](C)C[C@H](OC)[C@H]2O[C@@](O)(C(=O)C(=O)N3CCCC[C@H]3C(=O)O[C@H](/C(C)=C/[C@@H]3CC[C@@H](O)[C@H](OC)C3)[C@H](C)[C@@H](O)CC1=O)[C@H](C)C[C@@H]2OC [tacrolimus] + OC(Cn1cncn1)(Cn1cncn1)c1ccc(F)cc1F [fluconazole]
Bliss independence sum [1]: 8 | Bliss independence sum [2]: 4.23 | Bliss independence sum [3]: 1.84 | Bliss independence sum [4]: 5.34 | Bliss independence sum [5]: 8.35 | Bliss independence sum [6]: 6.04 | Bliss independence sum [7]: 0.935 | Bliss independence sum [8]: 2.21

CN(Cc1cnc2nc(N)nc(N)c2n1)c1ccc(C(=O)N[C@@H](CCC(=O)O)C(=O)O)cc1 [methotrexate] + CCC(C)n1ncn(-c2ccc(N3CCN(c4ccc(OCC5COC(Cn6cncn6)(c6ccc(Cl)cc6Cl)O5)cc4)CC3)cc2)c1=O [itraconazole]
Bliss independence sum [1]: 0.179 | Bliss independence sum [2]: -0.688 | Bliss independence sum [3]: 1.01 | Bliss independence sum [4]: -0.777 | Bliss independence sum [5]: -0.796 | Bliss independence sum [6]: -0.71 | Bliss independence sum [7]: 1.34 | Bliss independence sum [8]: 2.18

C=CC[C@@H]1/C=C(\C)C[C@H](C)C[C@H](OC)[C@H]2O[C@@](O)(C(=O)C(=O)N3CCCC[C@H]3C(=O)O[C@H](/C(C)=C/[C@@H]3CC[C@@H](O)[C@H](OC)C3)[C@H](C)[C@@H](O)CC1=O)[C@H](C)C[C@@H]2OC [tacrolimus] + CCC(C)n1ncn(-c2ccc(N3CCN(c4ccc(OCC5COC(Cn6cncn6)(c6ccc(Cl)cc6Cl)O5)cc4)CC3)cc2)c1=O [itraconazole]
Bliss independence sum [1]: 8.47 | Bliss independence sum [2]: 5.44 | Bliss independence sum [3]: 8.75 | Bliss independence sum [4]: 5.63 | Bliss independence sum [5]: 4.75 | Bliss independence sum [6]: 10.8 | Bliss independence sum [7]: 9.53 | Bliss independence sum [8]: 2.36

CC1(C)S[C@@H]2[C@H](NC(=O)[C@H](N)c3ccc(O)cc3)C(=O)N2[C@H]1C(=O)O [amoxicillin] + CCC(C)n1ncn(-c2ccc(N3CCN(c4ccc(OCC5COC(Cn6cncn6)(c6ccc(Cl)cc6Cl)O5)cc4)CC3)cc2)c1=O [itraconazole]
Bliss independence sum [1]: 0.79 | Bliss independence sum [2]: 3 | Bliss independence sum [3]: 0.394 | Bliss independence sum [4]: -0.894 | Bliss independence sum [5]: 0.212 | Bliss independence sum [6]: 0.613 | Bliss independence sum [7]: -0.787 | Bliss independence sum [8]: 3.78

C=CC[C@@H]1/C=C(\C)C[C@H](C)C[C@H](OC)[C@H]2O[C@@](O)(C(=O)C(=O)N3CCCC[C@H]3C(=O)O[C@H](/C(C)=C/[C@@H]3CC[C@@H](O)[C@H](OC)C3)[C@H](C)[C@@H](O)CC1=O)[C@H](C)C[C@@H]2OC [tacrolimus] + C[C@@H]1[C@H](O)[C@@H](C)/C=C/C=C/C=C/C=C/C=C/C=C/C=C/[C@H](O[C@@H]2O[C@H](C)[C@@H](O)[C@H](N)[C@@H]2O)C[C@@H]2O[C@](O)(C[C@@H](O)C[C@@H](O)[C@H](O)CC[C@@H](O)C[C@@H](O)CC(=O)O[C@H]1C)C[C@H](O)[C@H]2C(=O)O [amphotericin B]
Bliss independence sum [1]: 0.693 | Bliss independence sum [2]: 7.88 | Bliss independence sum [3]: 9.97 | Bliss independence sum [4]: 7.14 | Bliss independence sum [5]: 19.1 | Bliss independence sum [6]: 9.87 | Bliss independence sum [7]: 8.22 | Bliss independence sum [8]: 2.51

COc1c(C)c2c(c(O)c1C/C=C(\C)CCC(=O)O)C(=O)OC2 [mycophenolic acid] + C[C@@H]1[C@H](O)[C@@H](C)/C=C/C=C/C=C/C=C/C=C/C=C/C=C/[C@H](O[C@@H]2O[C@H](C)[C@@H](O)[C@H](N)[C@@H]2O)C[C@@H]2O[C@](O)(C[C@@H](O)C[C@@H](O)[C@H](O)CC[C@@H](O)C[C@@H](O)CC(=O)O[C@H]1C)C[C@H](O)[C@H]2C(=O)O [amphotericin B]
Bliss independence sum [1]: 4.37 | Bliss independence sum [2]: 4.74 | Bliss independence sum [3]: 3.61 | Bliss independence sum [4]: 2.79 | Bliss independence sum [5]: 6.09 | Bliss independence sum [6]: 3.32 | Bliss independence sum [7]: -0.484 | Bliss independence sum [8]: 6.59
